System: RS2-3 minigene (Firefly Luciferase), HEK-293T cells
Experiment: Luciferase induction assay, RS2-3 with splice modulator compounds in HEK-293T cells
Type: cell-based
Settings: Homo sapiens, 18 hours, n of 3, read-out: Mean fold-induction of luciferase (relative to vehicle control)

CCN1CC(c2ccc(-c3ccc(-c4ccc5nn(C)cc5c4)cc3O)nn2)C1 [Compound 24A, 2-[6-(1-ethylazetidin-3-yl)pyridazin-3-yl]-5-(2-methyl-2H-indazol-5-yl)phenol]
fold induction at 0.1 µM (RS2-3, 100 nM): 14.5 | fold induction at 1 µM (RS2-3, 1,000 nM): 42.6

— patent US20260327655A1, “SMALL-MOLECULE REGULATED ALTERNATIVE SPLICING” (priority 2023, published 2026)
